Measurements reported in patent US20050137130A1, “Medical treatment” (priority 2001, published 2005).

Test system: Notch signalling in CHO-N2 (N27#11) cells expressing full length human Notch2
Assay: CHO-N2 (N27) luciferase reporter assay, CHO-Delta antagonist assay
Format: cell-based
Conditions: soluble protein, N27#11 reporter cells co-cultured with CHO-Delta cells overnight
Text: An adenovirus major late promoter TATA-box motif with BglII and HindIII cohesive ends was generated as follows:
This was cloned into plasmid pGL3-Basic (Promega) between the BgiII and HindIII sites to generate plasmid pGL3-AdTATA.
A TP1 promoter sequence (TP1; equivalent to 2 CBF1 repeats) with BamH1 and BglII cohesive ends was generated as follows:
This sequence was pentamerised by repeated insertion into a BglII site and the resulting TP1 pentamer (equivalent to 10 CBF1 repeats) was inserted into pGL3-AdTATA at the BglII site to generate plasmid pLOR91.
A cDNA clone spanning the complete coding sequence of the human Notch2 gene (see, eg GenBank Accession No AF315356) was constructed as follows. A 3′ cDNA fragment encoding the entire intracellular domain and a portion of the extracellular domain was isolated from a human placental cDNA library (OriGene Technologies Ltd., USA) using a PCR-based screening strategy. […]
CHO-Delta cells (as described above) were maintained in DMEM plus 10% (HI)FCS plus glutamine plus P/S plus 0.5 mg/ml G418. Just prior to use the cells were removed from a T80 flask using 0.02% EDTA solution (Sigma), spun down and resuspended in 10 ml DMEM plus 10%(HI)FCS plus glutamine plus P/S. 10 μl of cells were counted and the cell density was adjusted to 5.0×10^5 cells/ml with fresh DMEM plus 10%(HI)FCS plus glutamine plus P/S. […]

Row | Substance | inhibition of Notch signalling from CHO-Delta cells
1 | hDelta1-IgG4Fc: fusion protein comprising the extracellular domain of human Delta1 fused to the Fc domain of human IgG4 (SEQ ID NO: 5) | inhibition of Notch signalling
2 | hJagged1EGF1&2-IgG4Fc: human jagged1 sequence up to the end of EGF2 (leader, amino terminal, DSL, EGF1+2) fused to the Fc domain of human IgG4 (SEQ ID NO: 10) | substantially the same inhibition of Notch signalling
